The target in one assay is T1, Alpha-glucosidase (Aspergillus niger, UniProt P56526).
T1 sequence (P56526 whole entry): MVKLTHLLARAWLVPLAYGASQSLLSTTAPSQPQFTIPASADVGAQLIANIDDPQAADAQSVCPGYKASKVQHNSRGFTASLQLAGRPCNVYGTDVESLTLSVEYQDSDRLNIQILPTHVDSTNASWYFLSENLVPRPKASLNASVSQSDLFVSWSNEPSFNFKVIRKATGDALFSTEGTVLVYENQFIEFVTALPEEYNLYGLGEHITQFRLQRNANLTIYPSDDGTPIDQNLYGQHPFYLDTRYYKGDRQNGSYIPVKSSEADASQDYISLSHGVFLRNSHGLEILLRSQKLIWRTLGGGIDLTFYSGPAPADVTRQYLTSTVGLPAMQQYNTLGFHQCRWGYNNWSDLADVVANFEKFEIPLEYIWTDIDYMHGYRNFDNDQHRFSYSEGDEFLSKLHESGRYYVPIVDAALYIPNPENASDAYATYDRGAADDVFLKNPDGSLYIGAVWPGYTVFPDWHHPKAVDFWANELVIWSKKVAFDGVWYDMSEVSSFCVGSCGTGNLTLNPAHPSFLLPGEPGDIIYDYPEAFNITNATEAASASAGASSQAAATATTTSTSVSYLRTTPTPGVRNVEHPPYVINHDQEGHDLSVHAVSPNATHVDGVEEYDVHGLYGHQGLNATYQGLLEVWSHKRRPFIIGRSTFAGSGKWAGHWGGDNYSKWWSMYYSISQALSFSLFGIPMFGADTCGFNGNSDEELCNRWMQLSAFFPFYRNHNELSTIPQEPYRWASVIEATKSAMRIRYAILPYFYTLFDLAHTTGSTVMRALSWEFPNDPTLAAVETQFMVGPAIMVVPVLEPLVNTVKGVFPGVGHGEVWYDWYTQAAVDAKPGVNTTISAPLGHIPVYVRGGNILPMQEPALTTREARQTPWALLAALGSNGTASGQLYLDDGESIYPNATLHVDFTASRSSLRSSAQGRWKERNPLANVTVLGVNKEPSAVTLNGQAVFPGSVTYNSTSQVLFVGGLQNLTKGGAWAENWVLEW
Description: Inhibition of Aspergillus niger alpha-glucosidase using p-nitrophenyl-alpha-D-glucopyranoside as substrate preincubated for 1 hr followed by substrate addition measured after 10 mins by spectrophotometric method.

The target of the next assay is T2, Alpha-mannosidase (Canavalia ensiformis, UniProt C0HJB3).
T2 sequence (C0HJB3 whole entry): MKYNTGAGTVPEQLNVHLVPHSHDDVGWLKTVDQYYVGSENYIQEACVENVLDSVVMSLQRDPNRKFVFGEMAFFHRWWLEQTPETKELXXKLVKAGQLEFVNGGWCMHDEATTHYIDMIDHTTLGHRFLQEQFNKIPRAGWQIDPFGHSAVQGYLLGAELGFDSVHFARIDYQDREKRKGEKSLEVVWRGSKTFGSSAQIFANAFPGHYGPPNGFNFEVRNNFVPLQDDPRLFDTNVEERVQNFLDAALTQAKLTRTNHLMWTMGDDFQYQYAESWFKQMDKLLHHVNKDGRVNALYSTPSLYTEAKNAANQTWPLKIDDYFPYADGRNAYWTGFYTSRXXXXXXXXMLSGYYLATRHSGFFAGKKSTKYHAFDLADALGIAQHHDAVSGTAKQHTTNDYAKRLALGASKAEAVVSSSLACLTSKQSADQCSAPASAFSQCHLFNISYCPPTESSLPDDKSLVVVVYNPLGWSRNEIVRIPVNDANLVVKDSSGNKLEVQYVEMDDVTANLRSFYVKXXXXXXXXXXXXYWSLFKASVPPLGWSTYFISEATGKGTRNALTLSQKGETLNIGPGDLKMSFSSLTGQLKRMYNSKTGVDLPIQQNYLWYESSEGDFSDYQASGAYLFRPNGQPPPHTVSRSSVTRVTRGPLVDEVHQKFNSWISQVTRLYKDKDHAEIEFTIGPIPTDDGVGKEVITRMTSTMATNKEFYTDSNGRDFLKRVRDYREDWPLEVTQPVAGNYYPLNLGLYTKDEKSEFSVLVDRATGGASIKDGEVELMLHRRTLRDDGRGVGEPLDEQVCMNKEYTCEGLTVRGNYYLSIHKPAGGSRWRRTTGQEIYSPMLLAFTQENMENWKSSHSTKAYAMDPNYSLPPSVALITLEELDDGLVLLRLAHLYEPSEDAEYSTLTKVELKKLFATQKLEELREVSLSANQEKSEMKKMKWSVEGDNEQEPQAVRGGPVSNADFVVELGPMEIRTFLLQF
The assay is described as follows: Inhibition of Canavalia ensiformis alpha-mannosidase using p-nitrophenyl-alpha-D-mannopyranoside as substrate preincubated for 1 hr followed by substrate addition measured after 10 mins by spectrophotometric method.

The test system of the next assay is Aspergillus niger. Description: Inhibition of Aspergillus niger amyloglucosidase at 1 mM using starch as substrate after 10 mins by Miller method.
The target of assay [1] is T3, Alpha-galactosidase (Escherichia coli) (UniProt P16551).
T3 sequence (whole entry): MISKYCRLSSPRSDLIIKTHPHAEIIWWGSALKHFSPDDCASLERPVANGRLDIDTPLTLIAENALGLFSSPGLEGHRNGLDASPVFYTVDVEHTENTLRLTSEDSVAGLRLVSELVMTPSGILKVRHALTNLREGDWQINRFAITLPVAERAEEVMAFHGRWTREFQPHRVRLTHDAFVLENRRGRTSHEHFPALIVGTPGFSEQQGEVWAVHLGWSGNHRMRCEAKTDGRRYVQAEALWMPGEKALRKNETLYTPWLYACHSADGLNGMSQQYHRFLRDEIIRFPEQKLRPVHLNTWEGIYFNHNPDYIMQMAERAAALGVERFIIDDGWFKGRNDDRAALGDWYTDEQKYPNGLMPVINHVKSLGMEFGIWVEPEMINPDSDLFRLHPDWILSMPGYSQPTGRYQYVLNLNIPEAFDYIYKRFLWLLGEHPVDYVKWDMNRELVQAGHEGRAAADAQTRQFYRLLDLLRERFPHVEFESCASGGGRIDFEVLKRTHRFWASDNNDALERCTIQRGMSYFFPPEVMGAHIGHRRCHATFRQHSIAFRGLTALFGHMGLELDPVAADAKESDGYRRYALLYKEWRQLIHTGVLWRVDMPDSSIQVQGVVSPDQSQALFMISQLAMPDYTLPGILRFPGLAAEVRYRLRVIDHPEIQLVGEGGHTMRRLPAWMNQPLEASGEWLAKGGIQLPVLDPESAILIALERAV
The assay is described as follows: Inhibition of Escherichia coli alpha-galactosidase at 1 mM using p-nitrophenyl-alpha-D-galactopyranoside as substrate preincubated for 1 hr followed by substrate addition measured after 10 mins by spectrophotometric method.

The nature of assay [2]: Inhibition of Aspergillus niger amyloglucosidase using starch as substrate after 10 mins by Miller method.
The target of the next assay is T4, Alpha-galactosidase (Escherichia coli, UniProt P16551).
T4 sequence (P16551 whole entry): T3 sequence (whole entry)
Description: Inhibition of Escherichia coli alpha-galactosidase using p-nitrophenyl-alpha-D-galactopyranoside as substrate preincubated for 1 hr followed by substrate addition measured after 10 mins by spectrophotometric method.

Structures are written as SMILES. Calls of active or inactive are those of the source. No cut-off for these calls is given here.

In the case of `CN1[C@H](C(=O)O)[C@H](O)[C@@H]1CO`, the values for the half-inhibitory concentration (IC50) on Alpha-glucosidase and against Alpha-mannosidase were 64.6 µM and 83.8 µM, respectively. For the same compound, the inhibition entry (in the assay with Aspergillus niger; in assay [1]) was “inactive” each time.

For `OC[C@@H]1N[C@H]([C@@H](O)CO)[C@@H]1O`, the half-maximal inhibitory concentration (IC50) (commonly the point on the concentration scale where inhibition reaches its midpoint) worked out at 78.2 µM in assay [2], 53.7 µM against Alpha-glucosidase, 54.6 µM at Alpha-galactosidase and 76 µM against Alpha-mannosidase.

For `OC[C@@H]1N[C@H](CO)[C@@H]1O`, the IC50 in assay [2] stood at 817 µM; at Alpha-glucosidase, 89.4 µM; at Alpha-mannosidase, 200 µM. For the same compound, the inhibition entry in assay [1] is “inactive”.

Turning to `OCCN1C[C@H](O)[C@@H](O)[C@H](O)[C@H]1CO` [MIGLITOL], the IC50 in assay [2] was 201 µM; against Alpha-glucosidase, 57.1 µM. Also, the inhibition entry in assay [1] was “inactive”.

For the origin of these results see ChEMBL document CHEMBL4177631, “Polyhydroxylated azetidine iminosugars: Synthesis, glycosidase inhibitory activity and molecular docking studies” (Bioorg Med Chem Lett, 2017).
